Experimental data as given in ChEMBL document CHEMBL4725296, “The novel HOCl fluorescent probe CAN induced A549 apoptosis by inhibiting chlorination activity of MPO” (Bioorg Med Chem Lett, 2020).
Activity calls are given as the source filed them. The calls are words filed in the database; no cut-off is given here.

Columns and labels:
[1] = test system: A549; test: Antitumor activity against human A549 cells treated chicken chorioallantoic membrane assessed as reduction in tumour mass at 200 uM measured after 3 to 8 days; type: functional, cell-based; conditions: time day 3-8
[2] = test system: A549; test: Antitumor activity against human A549 cells treated chicken chorioallantoic membrane assessed as increase in apoptosis cells in tumour mass at 200 uM by TUNEL staining based confocal microscopic analysis; type: functional, cell-based
[3] = test system: HUVEC; test: Cytotoxicity against HUVEC assessed as reduction in cell viability; type: cell-based; conditions: human
[4] = test system: Chorioallantoic membrane; test: Induction of angiogenesis in chicken chorioallantoic membrane at 50 to 100 uM by CAM assay; parameters: species or system Gallus gallus; conditions: dose 50-100 µM
[5] = test system: A549; test: Antitumor activity against human A549 cells treated chicken chorioallantoic membrane assessed as increase in apoptosis cells in tumour mass at 50 to 100 uM by TUNEL staining based confocal microscopic analysis; type: functional, cell-based; conditions: dose microM 50-100
[6] = test system: A549; test: Induction of morphological changes in human A549 cells assessed as nuclear fragmentation at 0.5 to 10 uM incubated for 48 hrs by AO and Hoechst 33258 staining based assay; type: functional, cell-based; conditions: dose microM 0.5-10, time 48.0 hrs
[7] = test system: RAW264.7; test: Cytotoxicity against mouse RAW264.7 cells assessed as reduction in cell viability at 1 uM incubated for 12 hrs; type: cell-based; conditions: raw264.7, 12 h
[8] = test system: RAW264.7; test: Photostability of compound in mouse RAW264.7 cells at 1 uM measured for 10 to 120 secs; type: ADME, cell-based; conditions: raw264.7, 1 µM, time 10-120 sec
[9] = test system: A549; test: Induction of necrosis in human A549 cells by LDH assay; type: functional, cell-based
[10] = Drug uptake in LPS stimulated mouse RAW264.7 cells assessed as increase in HOCL mediated fluorescence intensity at 1 uM after 1 hr by confocal microscopic analysis; type: ADME; conditions: raw264.7, 1 h
[11] = target: T1, Myeloperoxidase (Homo sapiens) (UniProt P05164); test: Effect on MPO in human A549 cells assessed as reduction in chlorination activity at 10 uM measured after 3 to 12 hrs by fluorescence assay; type: cell-based; conditions: filed as modulator, time hrs 3-12
T1 sequence (whole entry): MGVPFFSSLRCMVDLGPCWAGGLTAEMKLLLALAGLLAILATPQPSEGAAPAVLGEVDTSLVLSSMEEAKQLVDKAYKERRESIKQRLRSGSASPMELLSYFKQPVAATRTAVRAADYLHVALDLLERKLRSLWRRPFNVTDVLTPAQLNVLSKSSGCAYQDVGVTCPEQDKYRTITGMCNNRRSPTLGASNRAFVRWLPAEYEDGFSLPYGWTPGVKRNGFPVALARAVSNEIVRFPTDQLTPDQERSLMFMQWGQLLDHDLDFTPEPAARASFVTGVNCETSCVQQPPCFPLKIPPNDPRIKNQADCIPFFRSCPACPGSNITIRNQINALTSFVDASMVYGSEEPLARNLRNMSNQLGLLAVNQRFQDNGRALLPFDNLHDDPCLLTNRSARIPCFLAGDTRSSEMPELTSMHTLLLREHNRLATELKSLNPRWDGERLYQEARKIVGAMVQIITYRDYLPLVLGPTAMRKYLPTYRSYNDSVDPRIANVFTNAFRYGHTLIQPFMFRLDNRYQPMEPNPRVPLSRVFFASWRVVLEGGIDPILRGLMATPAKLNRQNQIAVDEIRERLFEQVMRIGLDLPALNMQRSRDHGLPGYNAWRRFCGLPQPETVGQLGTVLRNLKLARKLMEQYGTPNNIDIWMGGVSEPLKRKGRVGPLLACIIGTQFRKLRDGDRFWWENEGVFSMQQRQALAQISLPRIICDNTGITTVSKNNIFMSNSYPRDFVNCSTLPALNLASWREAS

[12] = test system: RAW264.7; test: Cytotoxicity against mouse RAW264.7 cells assessed as reduction in cell viability at 10 uM incubated for 12 hrs relative to control; type: cell-based; conditions: raw264.7, 12 h
[13] = test system: Chorioallantoic membrane; test: Induction of angiogenesis in chicken chorioallantoic membrane at 200 uM by CAM assay; parameters: species or system Gallus gallus
[14] = test system: A549; test: Induction of apoptosis in human A549 cells assessed as increase in cleaved PARP1 level incubated for 24 hrs by Western blot analysis; type: functional, cell-based
[15] = test system: A549; test: Induction of morphological changes in human A549 cells assessed as nuclear condensation at 0.5 to 10 uM incubated for 48 hrs by AO and Hoechst 33258 staining based assay; type: functional, cell-based; conditions: dose microM 0.5-10, time 48.0 hrs
[16] = test system: RAW264.7; test: Cytotoxicity against mouse RAW264.7 cells assessed as reduction in cell viability at 5 uM incubated for 12 hrs relative to control; type: cell-based; conditions: raw264.7, 12 h
[17] = test system: A549; test: Cytotoxicity against human A549 cells assessed as reduction in cell growth at 1 to 10 uM incubated for 24 to 48 hrs; type: functional, cell-based; conditions: dose microM 1-10, time hrs 24-48
[18] = test system: A549; test: Induction of morphological changes in human A549 cells assessed as appearance of round shaped cells at 1 uM incubated for 48 hrs; type: functional, cell-based
[19] = target: T1, Myeloperoxidase (Homo sapiens); test: Effect on MPO in human A549 cells assessed as reduction in peroxidation activity at 10 uM measured after 3 to 12 hrs by fluorescence assay; type: cell-based; conditions: filed as modulator, time hrs 3-12
[20] = test system: A549; test: Antitumor activity against human A549 cells treated chicken chorioallantoic membrane assessed as reduction in tumour mass at 50 to 100 uM measured after 3 to 8 days; type: functional, cell-based; conditions: dose microM 50-100, time day 3-8
[21] = test system: A549; test: Cytotoxicity against human A549 cells assessed as reduction in cell growth incubated for 24 to 48 hrs; type: functional, cell-based

O=c1[nH]cc(F)c(=O)[nH]1
Activity [1]: Active | Activity [2]: Active

CCN(CC)c1ccc2cc(C3Nc4cccc5cccc(c45)N3)c(=O)oc2c1
Activity [3]: Non-Toxic | Activity [4]: Non-Toxic | Activity [5]: Active | Activity [6]: Active | Activity [7]: Non-Toxic | Stabilty [8]: Stable | Activity [9]: inactive | Drug uptake [10]: Active | Activity [11]: Active | Activity [12]: 50.5% | Activity [13]: Non-Toxic | Activity [14]: Active | Activity [15]: Active | Activity [16]: 61% | Activity [17]: Active | Activity [18]: Active | Activity [19]: Active | Activity [20]: Active | IC50 [21]: 4.3 µM
